Source: patent publication US20250230147A1, “LACTAMS AS CBL-B INHIBITORS” (Genentech, Inc., priority 2021, published 2025)
Structures can show the parent of a compound that is named as a salt.

Key:
Cbl-b = Cbl-b (Homo sapiens (Human), UniProt Q13191); assay: Cbl-b LCK Ub TR-FRET assay (Cbl-b Lck HTRF); format: biochemical
Summary of the method: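 Biotin-Cbl-b preincubated with compound (10-point 3-fold series) 60 min, then His-LCK with 1 mM ATP (2× mixture) added for 90 min at room temperature. Ubiquitination detected by TR-FRET using HA-ubiquitin/UBE2D2 adduct, anti-HA-D2 and streptavidin-Eu; IC50 normalised to no-LCK and DMSO controls.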

c-Cbl = c-Cbl (Homo sapiens (Human), UniProt P22681); assay: C-Cbl LCK Ub TR-FRET assay (c-cbl Lck HTRF); format: biochemical; conditions: for (fold-selectivity): C-cbl Lck HTRF IC50 relative to Cbl-b Lck HTRF IC50
Sequence of c-Cbl (P22681 47-435): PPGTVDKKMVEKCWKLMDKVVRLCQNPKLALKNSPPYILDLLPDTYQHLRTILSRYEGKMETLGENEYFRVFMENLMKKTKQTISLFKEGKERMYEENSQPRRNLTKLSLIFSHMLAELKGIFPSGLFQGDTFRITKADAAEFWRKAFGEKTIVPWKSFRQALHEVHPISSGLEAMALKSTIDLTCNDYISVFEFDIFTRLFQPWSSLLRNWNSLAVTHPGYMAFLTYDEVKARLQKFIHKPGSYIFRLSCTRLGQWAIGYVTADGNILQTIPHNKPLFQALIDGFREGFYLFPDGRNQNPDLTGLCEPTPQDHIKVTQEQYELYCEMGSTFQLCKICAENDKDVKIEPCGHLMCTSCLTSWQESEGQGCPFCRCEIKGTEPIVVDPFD
Summary of the method: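 Detection reagents added, brief spin, 20 min RT. IC50 fit normalized to no-LCK (low) and DMSO (high) controls.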

Sequence of Cbl-b (Q13191 40-426): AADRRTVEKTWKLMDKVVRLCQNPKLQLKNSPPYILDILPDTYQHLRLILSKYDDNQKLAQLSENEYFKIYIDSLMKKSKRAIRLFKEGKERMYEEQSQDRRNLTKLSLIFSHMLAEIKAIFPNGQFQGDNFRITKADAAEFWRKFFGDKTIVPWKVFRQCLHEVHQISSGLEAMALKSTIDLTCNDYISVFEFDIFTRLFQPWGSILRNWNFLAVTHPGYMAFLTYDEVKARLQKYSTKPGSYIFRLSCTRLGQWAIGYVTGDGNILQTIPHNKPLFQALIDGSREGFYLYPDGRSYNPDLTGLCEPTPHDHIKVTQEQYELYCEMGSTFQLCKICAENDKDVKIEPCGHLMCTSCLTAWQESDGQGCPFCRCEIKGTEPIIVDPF

| Compound | IC50 (Cbl-b) [nM] | IC50 (c-Cbl) [nM] | (fold-selectivity) (c-Cbl) |
| --- | --- | --- | --- |
| Cn1cnnc1CC1(c2cc(NCC3CCNCC3)nc(N3Cc4c(cc(CNC5(C)CCC5)cc4C(F)(F)F)C3=O)c2)CCC1 [Compound 339, 2-(4-(1-((4-methyl-4H-1,2,4-triazol-3-yl)methyl)cyclobutyl)-6-((piperidin-4-ylmethyl)amino)pyridin-2-yl)-6-(((1-methylcyclobutyl)amino)methyl)-4-(trifluoromethyl)isoindolin-1-one] | 530 | 360 | (0.68x) |
| C#Cc1cccc2c1CN(c1cccc(C3([C@@H](F)c4nncn4C)COC3)c1)C2=O [Compound 211, (R)-4-ethynyl-2-(3-(3-(fluoro(4-methyl-4H-1,2,4-triazol-3-yl)methyl)oxetan-3-yl)phenyl)isoindolin-1-one] | 940 | 1600 | 1.7x |
| CC(C)[C@H]1CN(C)CCN1Cc1cc2c(c(C(F)(F)F)c1)CN(c1cccc(C3(Cc4nncn4C(F)F)COC3)c1)C2=O [Compound 266, (S)-2-(3-(3-((4-(difluoromethyl)-4H-1,2,4-triazol-3-yl)methyl)-oxetan-3-yl)phenyl)-6-((2-isopropyl-4-methylpiperazin-1-yl)methyl)-4-(trifluoromethyl)-isoindolin-1-one] | 13 | 9.7 | (0.76x) |
| Cn1cnnc1[C@H](F)C1(c2cccc(N3Cc4c(cc(CN5CC(C)(O)C5)cc4C(F)(F)F)C3=O)c2)CC(F)(F)C1 [Compound 51, (R)-2-(3-(3,3-difluoro-1-(fluoro(4-methyl-4H-1,2,4-triazol-3-yl)methyl)cyclobutyl)-phenyl)-6-((3-hydroxy-3-methylazetidin-1-yl)methyl)-4-(trifluoromethyl)isoindolin-1-one] | 62 | 150 | 2.4x |
| Cn1cnnc1CC1(c2cc(NCCC(F)(F)F)nc(N3Cc4c(cccc4C(F)(F)F)C3=O)c2)COC1 [Compound 488, 2-(4-(3-((4-methyl-4H-1,2,4-triazol-3-yl)methyl)oxetan-3-yl)-6-((3,3,3-trifluoropropyl)amino)pyridin-2-yl)-4-(trifluoromethyl)isoindolin-1-one] | 1900 | 12500 | (6.4x) |
| Cn1cnnc1CC1(c2cccc(N3Cc4c(cc(CNC5(C)CC(F)C5)cc4C(F)(F)F)C3=O)c2)CC(F)(F)C1 (centres unmarked) [Compound 341, 2-(3-(3,3-difluoro-1-((4-methyl-4H-1,2,4-triazol-3-yl)methyl)cyclobutyl)phenyl)-6-(((3-fluoro-1-methylcyclobutyl)amino)methyl)-4-(trifluoromethyl)isoindolin-1-one] | 14 | 10 | (0.74x) |
| CC(C)[C@H]1CN(Cc2cc3c(c(C(F)(F)F)c2)CN(c2cccc(C4([C@H](F)c5nncn5C)COC4)c2)C3=O)CCN1 [Compound 91] | 140 | 170 | 1.2x |
| Cn1cnnc1[C@@H](F)C1(c2cccc(N3Cc4c(cc(CNCC5CC5)cc4C(F)(F)F)C3=O)c2)CC(F)(F)C1 [Compound 450, (S)-6-(((cyclopropylmethyl)amino)methyl)-2-(3-(3,3-difluoro-1-(fluoro(4-methyl-4H-1,2,4-triazol-3-yl)methyl)cyclobutyl)phenyl)-4-(trifluoromethyl)isoindolin-1-one] | 15 | 14 | (0.95x) |
| Cn1cnnc1CC1(c2cccc(N3Cc4c(cc(CNC(C)(C)CF)cc4C(F)(F)F)C3=O)c2)CC(F)(F)C1 [Compound 372, 2-(3-(3,3-difluoro-1-((4-methyl-4H-1,2,4-triazol-3-yl)methyl)cyclobutyl)phenyl)-6-(((1-fluoro-2-methylpropan-2-yl)amino)methyl)-4-(trifluoromethyl)isoindolin-1-one] | 28 | 34 | (1.2x) |
| CCOc1cc(C2(Cc3nncn3C)COC2)cc(N2Cc3c(cc(CN4CCC(F)(F)[C@H](C)C4)cc3C(F)(F)F)C2=O)n1 [Compound 375, (R)-6-((4,4-difluoro-3-methylpiperidin-1-yl)methyl)-2-(6-ethoxy-4-(3-((4-methyl-4H-1,2,4-triazol-3-yl)methyl)oxetan-3-yl)pyridin-2-yl)-4-(trifluoromethyl)isoindolin-1-one] | 22 | 14 | (0.65x) |
| CCN1CCN(Cc2cc3c(c(C(F)(F)F)c2)CN(c2cccc(C4([C@@H](F)c5nncn5C)CC(F)(F)C4)c2)C3=O)[C@@H](C(C)C)C1 [Compound 460, 2-(3-(3,3-difluoro-1-((R)-fluoro(4-methyl-4H-1,2,4-triazol-3-yl)methyl)cyclobutyl)phenyl)-6-(((S)-4-ethyl-2-isopropylpiperazin-1-yl)methyl)-4-(trifluoromethyl)isoindolin-1-one] | 14 | 8.4 | (0.58x) |
| CC(C)[C@H]1CN(C)CCN1Cc1cc2c(c(C(F)(F)F)c1)CN(c1cccc(C3([C@H](F)c4nc(F)cn4C)COC3)c1)C2=O [Compound 270, 2-(3-(3-((S)-fluoro(4-fluoro-1-methyl-1H-imidazol-2-yl)methyl)oxetan-3-yl)phenyl)-6-(((S)-2-isopropyl-4-methylpiperazin-1-yl)methyl)-4-(trifluoromethyl)isoindolin-1-one] | 130 | 350 | (2.6x) |
| CN1CC2CC(C1)N2Cc1cc2c(c(C(F)(F)F)c1)CN(c1cccc(C3(Cc4nncn4C)CC(F)(F)C3)c1)C2=O [Compound 412, 2-(3-(3,3-difluoro-1-((4-methyl-4H-1,2,4-triazol-3-yl)methyl)cyclobutyl)phenyl)-6-((3-methyl-3,6-diazabicyclo[3.1.1]heptan-6-yl)methyl)-4-(trifluoromethyl)isoindolin-1-one] | 50 | 51 | (1.1x) |
| Cn1cnnc1CC1(c2cc(NC3CCCC3)nc(N3Cc4c(cc(CNC5(C)CCC5)cc4C(F)(F)F)C3=O)c2)COC1 [Compound 298, 2-(6-(cyclopentylamino)-4-(3-((4-methyl-4H-1,2,4-triazol-3-yl)methyl)oxetan-3-yl)pyridin-2-yl)-6-(((1-methylcyclobutyl)amino)methyl)-4-(trifluoromethyl)isoindolin-1-one] | 9.9 | 13 | (1.3x) |
| C=CC(=O)Nc1cc(C2(Cc3nncn3C)CCC2)cc(N2Cc3c(cc(CN4CCN(C)C[C@@H]4C(C)C)cc3C(F)(F)F)C2=O)n1 [Compound 239, (S)—N-(6-(6-((2-isopropyl-4-methylpiperazin-1-yl)methyl)-1-oxo-4-(trifluoromethyl)isoindolin-2-yl)-4-(1-((4-methyl-4H-1,2,4-triazol-3-yl)methyl)cyclobutyl)-pyridin-2-yl)acrylamide] | 35 | 48 | (1.4x) |
| Cn1cnnc1CC1(c2cccc(N3Cc4c(cc(CNCC5COC(C)(C)O5)cc4C(F)(F)F)C3=O)c2)CC(F)(F)C1 (centres unmarked) [Compound 357, 2-(3-(3,3-difluoro-1-((4-methyl-4H-1,2,4-triazol-3-yl)methyl)cyclobutyl)phenyl)-6-((((2,2-dimethyl-1,3-dioxolan-4-yl)methyl)amino)methyl)-4-(trifluoromethyl)isoindolin-1-one formate] | 38 | 41 |  |
| CC(C)[C@H]1CN(S(C)(=O)=O)CCN1Cc1cc2c(c(C(F)(F)F)c1)CN(c1cccc(C3([C@H](F)c4nncn4C)COC3)c1)C2=O [Compound 196, 2-(3-(3-((S)-fluoro(4-methyl-4H-1,2,4-triazol-3-yl)methyl)oxetan-3-yl)phenyl)-6-(((S)-2-isopropyl-4-(methylsulfonyl)piperazin-1-yl)methyl)-4-(trifluoromethyl)isoindolin-1-one] | 240 | 660 | 2.8x |
| COc1cc(C2(Cc3nncn3C)CCC2)cc(N2Cc3c(cc(CN4CCN(C)C[C@@H]4C(C)C)cc3C(F)(F)F)C2=O)n1 [Compound 365, (S)-6-((2-isopropyl-4-methylpiperazin-1-yl)methyl)-2-(6-methoxy-4-(1-((4-methyl-4H-1,2,4-triazol-3-yl)methyl)cyclobutyl)pyridin-2-yl)-4-(trifluoromethyl)isoindolin-1-one] | 12 | 6.7 | (0.57x) |
| Cn1cnnc1CC1(c2cccc(N3Cc4c(cc(CNC5(C)COC5)cc4C(F)(F)F)C3=O)c2)CC(F)(F)C1 [Compound 332, 2-(3-(3,3-difluoro-1-((4-methyl-4H-1,2,4-triazol-3-yl)methyl)cyclobutyl)phenyl)-6-(((3-methyloxetan-3-yl)amino)methyl)-4-(trifluoromethyl)isoindolin-1-one] | 28 | 34 | (1.2x) |
| CN1CCN(Cc2cc3c(c(C(F)(F)F)c2)CN(c2cccc(C4(Cc5nncn5C)CC(F)(F)C4)c2)C3=O)C(=O)C1 [Compound 444, 2-(3-(3,3-difluoro-1-((4-methyl-4H-1,2,4-triazol-3-yl)methyl)cyclobutyl)phenyl)-6-((4-methyl-2-oxopiperazin-1-yl)methyl)-4-(trifluoromethyl)isoindolin-1-one] | 170 | 180 | (1.1x) |
| Cn1cnnc1C(F)(F)C1(c2cccc(N3Cc4c(cc(CNC5(C)CCC5)cc4C(F)(F)F)C3=O)c2)CCC1 [Compound 235, 2-(3-(1-(difluoro(4-methyl-4H-1,2,4-triazol-3-yl)methyl)cyclobutyl)phenyl)-6-(((1-methylcyclobutyl)amino)methyl)-4-(trifluoro-methyl)isoindolin-1-one] | 15 | 21 | (1.4x) |
